Results on 2 molecules are retold here after patent EP1119551B1, “NAPHTHALENECARBOXAMIDES AS TACHYKININ RECEPTOR ANTAGONISTS” (AstraZeneca AB, priority 1998, dated 2000).

Experiment [1] addresses NK1 receptor (Oryctolagus cuniculus, UniProt G1SEI7). Briefly: Rabbit Pulmonary Artery: NK1 in vitro functional assay (Test C). The format is cell-based. The conditions noted are these: antagonism of agonist ASMSP, -log molar apparent dissociation constant KB. The protocol: Rabbit Pulmonary Artery: NK1 in vitro functional assay (Test C) […] Male New Zealand white rabbits are euthanized via i.v. injection into the ear vein with 60 mg/kg Nembutal (50 mg/mL). Preceding the Nembutal into the vein is Heparin (1000 units/mL) at 0.0025 mL/kg for anticoagulant purposes. The chest cavity is opened from the top of the rib cage to the sternum and the heart, lungs and part of the trachea are removed. The pulmonary arteries are isolated from the rest of the tissues and cut in half to serve as pairs. […] Responses are measured on a Grass polygraph via Grass FT-03 transducers. […] Percent inhibition is determined when a tested compound produces a statistically significant (p < 0.05) reduction of the total relaxation which is calculated using the total relaxation of the Papaverine as 100%. Potencies of the compounds are determined by calculating the apparent dissociation constants (KB) for each concentration tested using the standard equation: KB= [antagonist]/ (dose ratio - 1) [formula] where dose ratio = antilog[(agonist -log molar EC50 without compound) - (-log molar EC50 with compound)]. The KB values may be converted to the negative logarithms and expressed as -log molar KB (i.e. pKB). […] The EC50 values are converted to negative logarithms and expressed as -log molar EC50.

The target of experiment [2] is T1, NK2 receptor (Oryctolagus cuniculus, UniProt P79218).
T1 construct: The pulmonary arteries are isolated from the rest of the tissues, then rubbed over an intimal surface to remove the endothelium; from tissue; host or cells: rabbit pulmonary artery rings (endothelium removed)
T1 sequence (P79218 1-384): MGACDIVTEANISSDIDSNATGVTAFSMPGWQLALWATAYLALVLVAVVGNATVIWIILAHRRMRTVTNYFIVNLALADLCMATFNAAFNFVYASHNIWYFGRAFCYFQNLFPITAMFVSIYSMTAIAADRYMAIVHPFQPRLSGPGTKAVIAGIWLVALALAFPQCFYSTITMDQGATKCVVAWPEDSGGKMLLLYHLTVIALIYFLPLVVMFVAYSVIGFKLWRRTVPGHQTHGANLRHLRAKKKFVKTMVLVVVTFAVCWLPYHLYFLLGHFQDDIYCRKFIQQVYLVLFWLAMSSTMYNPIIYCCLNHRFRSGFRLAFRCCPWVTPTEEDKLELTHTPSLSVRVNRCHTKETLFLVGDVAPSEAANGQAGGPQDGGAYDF
Briefly: Rabbit Pulmonary Artery: NK2 in vitro functional assay (Test D). The note with it: antagonism of agonist BANK, -log molar apparent dissociation constant KB, read-out: NK2 pKb (Test D) (converted). It is filed as cell-based.
Protocol: The ability of a compound of the invention to antagonize the action of the agonist [β-ala8] […] Male New Zealand white rabbits are euthanized via i.v. injection into the ear vein with 60 mg/kg Nembutal (50 mg/mL). Preceding the Nembutal into the vein is Heparin (1000 units/mL) at 0.0025 mL/kg for anticoagulant purposes. The chest cavity is opened from the top of the rib cage to the sternum and a small incision is made into the heart so that the left and right pulmonary arteries can be cannulated with polyethylene tubing (PE260 and PE190 respectively). […] Responses are measured on a Grass polygraph via Grass FT-03 transducers. […]
Percent inhibition is determined when a tested compound produces a statistically significant (p < 0.05) reduction of the total contraction which is calculated using the total contraction of the BaCl2 as 100%. Potencies of the compounds are determined by calculating the apparent dissociation constants (KB) for each concentration tested using the standard equation: KB = [antagonist]/ (dose ratio - 1) [formula] where dose ratio = antilog[(agonist -log molar EC50 without compound) - (-log molar EC50 with compound)]. The KB values may be converted to the negative logarithms and expressed as -log molar KB (i.e. pKB). […] The EC50 values are converted to negative logarithms and expressed as -log molar EC50.

NK1 receptor, sequence (G1SEI7 1-407): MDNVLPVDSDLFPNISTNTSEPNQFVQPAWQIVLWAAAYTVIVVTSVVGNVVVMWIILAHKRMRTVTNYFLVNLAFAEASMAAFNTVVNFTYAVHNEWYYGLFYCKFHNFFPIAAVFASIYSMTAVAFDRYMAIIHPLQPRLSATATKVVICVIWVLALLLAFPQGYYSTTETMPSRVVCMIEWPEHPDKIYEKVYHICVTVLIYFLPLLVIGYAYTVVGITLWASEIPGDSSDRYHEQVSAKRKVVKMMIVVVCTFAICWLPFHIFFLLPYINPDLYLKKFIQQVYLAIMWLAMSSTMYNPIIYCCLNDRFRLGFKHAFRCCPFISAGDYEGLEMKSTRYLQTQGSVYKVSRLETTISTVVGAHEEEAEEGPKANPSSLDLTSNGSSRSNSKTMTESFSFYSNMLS

In the case of `COc1c(C#N)cc2ccccc2c1C(=O)N(C)C[C@@H](CCN1CCC(c2ccccc2[S@+](C)[O-])CC1)c1ccc(Cl)c(Cl)c1.O=C(O)CC(O)(CC(=O)O)C(=O)O` [Example 1, N-[(S)-2-(3,4-Dichlorophenyl)-4-[4-[(S)-2-methylsulfinylphenyl]-1-piperidinyl]butyl]-N-methyl-2-methoxy-3-cyano-1-naphthamide citrate], in experiment [1], the “NK1 pKb (Test C)” value is 9.5. For the same molecule, the Kb in experiment [2] is 50.1 nM.
As for `CCc1c(C#N)cc2ccccc2c1C(=O)N(C)C[C@@H](CCN1CCC(c2ccccc2[S@+](C)[O-])CC1)c1ccc(Cl)c(Cl)c1.O=C(O)CC(O)(CC(=O)O)C(=O)O` [Example 18, N-[(S)-2-(3,4-Dichlorophenyl)-4-[4-[(S)-2-methylsulfinylphenyl]-1-piperidinyl]butyl]-N-methyl-3-cyano-2-ethyl-1-naphthamide citrate], the “NK1 pKb (Test C)” value in experiment [1] stood at 9.6. In addition, in experiment [2], the Kb is 50.1 nM.
